This is an account of results in patent US6403594B1, “Benzopyran derivatives” (Recordati, S.A. Chemical and Pharmaceutical Company, priority 1999, dated 2002).

SMILES strings stand for the structures.

Test [1] deals with T1, α1d-adrenoceptor (recombinant) (Homo sapiens, UniProt P25100).
T1 sequence (P25100 1-572): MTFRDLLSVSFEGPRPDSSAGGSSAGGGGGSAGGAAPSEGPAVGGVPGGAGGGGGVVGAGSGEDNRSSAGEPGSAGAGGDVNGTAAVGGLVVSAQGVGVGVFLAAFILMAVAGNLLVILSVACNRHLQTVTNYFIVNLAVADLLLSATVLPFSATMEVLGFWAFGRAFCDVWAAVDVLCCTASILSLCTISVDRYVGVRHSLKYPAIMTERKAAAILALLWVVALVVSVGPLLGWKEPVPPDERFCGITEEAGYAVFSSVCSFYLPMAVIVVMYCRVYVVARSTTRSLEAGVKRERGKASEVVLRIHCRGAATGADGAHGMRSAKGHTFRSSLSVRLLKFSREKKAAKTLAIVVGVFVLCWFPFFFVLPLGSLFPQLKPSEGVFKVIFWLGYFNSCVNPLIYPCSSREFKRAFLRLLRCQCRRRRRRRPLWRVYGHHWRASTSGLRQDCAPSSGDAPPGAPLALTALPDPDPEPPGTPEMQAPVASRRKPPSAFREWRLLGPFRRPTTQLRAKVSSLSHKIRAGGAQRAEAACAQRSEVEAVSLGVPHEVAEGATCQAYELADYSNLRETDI
Briefly: Radioligand binding, cloned α1d-adrenoceptor ([3H]prazosin). Particulars: read-out: Affinity for recombinant α1d-adrenoceptor, cloned receptors (Ki).

Test [2] addresses T2, α1L adrenoceptor (Oryctolagus cuniculus, UniProt O02824).
T2 sequence (O02824 1-466): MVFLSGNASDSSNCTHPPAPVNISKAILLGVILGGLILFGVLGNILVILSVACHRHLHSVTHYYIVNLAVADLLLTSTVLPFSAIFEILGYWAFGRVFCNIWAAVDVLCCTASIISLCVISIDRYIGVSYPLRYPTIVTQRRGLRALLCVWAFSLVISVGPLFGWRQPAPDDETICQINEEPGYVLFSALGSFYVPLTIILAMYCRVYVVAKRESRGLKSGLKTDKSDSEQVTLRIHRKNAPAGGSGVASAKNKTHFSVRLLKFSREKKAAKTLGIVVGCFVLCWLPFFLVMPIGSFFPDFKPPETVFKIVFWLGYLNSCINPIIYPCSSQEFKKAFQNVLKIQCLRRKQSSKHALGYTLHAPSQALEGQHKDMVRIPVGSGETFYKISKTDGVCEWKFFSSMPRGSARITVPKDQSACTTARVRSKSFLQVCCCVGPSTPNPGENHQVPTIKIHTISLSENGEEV
The experiment in a line: Functional antagonism of noradrenaline-induced contractions of rabbit aorta pretreated with chloroethylclonidine. The test is classed as biochemical. As to conditions: NA-induced contractions of rabbit aorta pretreated with chloroethylclonidine. As to the method: Adult male New Zealand rabbits were sacrificed by cervical dislocation. The aorta was removed, placed in Krebs-Henseleit buffer and dissected free of adhering tissue. […] Desmethylimipramine (0.1 μm) and corticosterone (1 μM) to block neuronal and extraneuronal uptake of NA, (±)-propranol (1 μM) to block β adrenoceptors and yohimbine (0.1 μM) to block α2 adrenoceptors, were added to the buffer.
The preparations were allowed to equilibrate for 60 minutes and then primed every thirty minutes with 10 μM NA for three times. The aortic rings were then incubated with the alkylating agent chloroethylclonidine (5×10^−5 M) for 30 minutes and then washed extensively three times (in 0.5 hours) before constructing the NA-concentration/response curve. After washout of NA and re-equilibration of the tissue (45 minutes), the drug to be tested was added and, after 30 minutes, a second NA-cumulative-concentration/response curve constructed.
Each antagonist concentration was tested using 2-3 aortic rings from different rabbits.
Dose ratios (i.e., the ratio between the concentrations of NA required to produce half-maximal response in the presence and in the absence of the test antagonist) were calculated for each concentration of the compounds. The logarithm of these dose ratio-1 was plotted against the logarithm of the compound concentrations (Schild plot) to evaluate the affinity constant Kb.
When only one or two concentrations of the test compounds were utilised, the apparent Kb value was calculated using the formula: Kb=[B]/(DOSE RATIO-1), where B is the antagonist concentration.

In test [3] the test system is prostatic urethral pressure increase induced by noradrenaline. The experiment in a line: Inhibition of urethral contractions induced by noradrenaline in anaesthetised dogs after i.v. administration. The test is classed as in vivo, dog. As to conditions: for UC ID50: active dose inhibiting by 50% the urethral contractions induced by noradrenaline: i.v. administration; for DBP/UC ratio between the active doses: i.v., DBP ED25 / UC ID50. As to the method:
(§1) The experiments were performed according to the method of Imagawa J. et al., J. Pharmacol. Methods 22: 103-111, 1989, with substantial modifications, as follows: adult male beagle dogs, weighing 8-10 kg, were anaesthetised with pentobarbital sodium (30 mg/kg i.v. and 2 mg/kg/h i.v.), intubated and spontaneously ventilated with room air. In order to monitor systemic blood pressure (BP), a polyethylene (PE) catheter was introduced into the aortic arch through the left femoral artery. A collateral of the left femoral vein was cannulated for infusion of anaesthetic, and the right femoral vein was cannulated for administration of compounds. For intra-arterial (i.a.) injection of noradrenaline (NA), a PE catheter was introduced into the lower portion of the abdominal aorta via the right external iliac artery. Through such procedure, NA was selectively distributed to the lower urinary tract. A paramedian vertical suprapubic incision extending from the base of the pelvis to the mid-abdominal region was made and the bladder and prostate were exposed. The bladder was manually emptied with a syringe. Prostatic urethral pressure was monitored with a Mikro-tip catheter (5F) introduced into the bladder via the external urethral meatus, and withdrawn until the pressure transducer was positioned in the prostatic region of the urethra. A ligature was secured between the neck of the bladder and urethra to isolate the response of the latter and to avoid any interaction with the bladder. Another ligature was put around the Mikro-tip catheter at the external meatus, to secure the catheter itself. After a stabilising period following the surgical procedure (30 minutes), in which arterial and prostatic urethral pressure were continuously monitored as basal values, i.a. administration of NA was made at intervals of 20 minutes. The doses of NA chosen were such to produce an increase of at least 100% in urethral pressure. The test compounds were administered i.v. in a cumulative manner with intervals of 15-20 minutes between administrations. I.a. injections of NA were repeated 5 minutes after every dosing of test compound with intervals of about 10 minutes between stimulations. In order to compare the effects of the administered compound, dose/response curves (log dose transformation) were constructed by computing, at the peak effect, the percent decrease in diastolic blood pressure and the percent inhibition of the increase in urethral pressure induced by NA.

The test system of test [4] is diastolic blood pressure. Briefly: Lowering of diastolic blood pressure in anaesthetised dogs after i.v. administration. The test is classed as in vivo, dog. As to the method: as §1

For the compound `COc1ccc(Cl)cc1N1CCN(CCCNC(=O)c2cccc3c(=O)c(C)c(C(N)=O)oc23)CC1` [Example 1, 2-Carbamoyl-8-{3-[4-(5-chloro-2-methoxyphenyl)-1-piperazinyl]-propylcarbamoyl}-3-methyl-4-oxo-4H-1-benzopyran], in test [1], the Ki stood at 57.4 nM. Besides, in test [2], the “Functional affinity for the α1L adrenoceptor subtype, pKb” value amounted to 8.27. Moreover, in test [3], the “UC ID50: active dose inhibiting by 50% the urethral contractions induced by noradrenaline” value was 0.0118 mg/kg and the “DBP/UC ratio between the active doses” value turned out to be 234.7. Also, the “DBP ED25: active dose lowering diastolic blood pressure by 25%” value in test [4] turned out to be 2.769 mg/kg.
The corresponding values for `CCOC(=O)c1oc2c(C(=O)NCCCN3CCN(c4cc(Cl)ccc4OC)CC3)cccc2c(=O)c1C` [Example 4, 2-Ethoxycarbonyl-8-{3-[4-(5-chloro-2-methoxyphenyl)-1-piperazinyl]-propylcarbamoyl}-3-methyl-4-oxo-4H-1-benzopyran] are 2.75 nM, 8.47, 0.0023 mg/kg, 71.0 and 0.1633 mg/kg.

In general, Ki refers to the equilibrium dissociation constant of an inhibitor or competing ligand from its target.
